The text below walks through data of ChEMBL document CHEMBL1201862, “PubChem BioAssay data set” (2004).

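Dose response: 5 concentrations. Exposure: 48 h. Format: 96-well plates. Endpoint: linear interpolation; highest concentration if not reached. The concentration for 50% growth inhibition is given as GI50.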 Activity calls are given as the source filed them. Cut-off read from the data, not from the text of the source: active = GI50 up to about 1.1 µM and inactive = higher.

Some test systems named below: ACHN; HCT-116; HOP-62; HOP-92; IGROV-1; K562; KM12; M14; MDA-N; Malme-3M; NCI-H460; OVCAR-3; OVCAR-8; SF-268; SK-MEL-28; SK-MEL-5; T47D; UACC-257; UACC-62; OVCAR-5.
What all share (assay): NCI anticancer screen, dose series, 48 h

As for `CC1C(=NO)C(C)C(c2ccccc2)N(N=O)C1c1ccccc1` (stereo not drawn), the GI50 was 20.2 µM (inactive) in the experiment with ACHN; 17.5 µM (inactive) in the experiment with HCT-116; 19.1 µM (inactive) with HOP-62; 19.7 µM (inactive) in the experiment with HOP-92; 19.6 µM (inactive) in the experiment with IGROV-1; 32.7 µM (inactive) with K562. The GI50 is 16 µM (inactive) in the experiment with KM12; 16 µM (inactive) in the experiment with M14; 20.1 µM (inactive) with MDA-N; 17.4 µM (inactive) with Malme-3M; 16 µM (inactive) in the experiment on NCI-H460; 25.2 µM (inactive) in the experiment on OVCAR-3. Besides, the GI50 in the experiment with OVCAR-8 was 18 µM (inactive); with SF-268, 15 µM (inactive); in the experiment on SK-MEL-28, 16.7 µM (inactive); in the experiment with SK-MEL-5 it was 18.9 µM (inactive); in the experiment on T47D, 18.7 µM (inactive); in the experiment on UACC-257, 23.4 µM (inactive). Further, the GI50 in the experiment with UACC-62 was 13.5 µM (inactive).

For `CC1(C)Oc2ccc(NC(=O)CCC(N)C(=O)O)cc2O1` (stereo not drawn), the GI50 in the experiment on ACHN, in the experiment on HCT-116, in the experiment with HOP-62, in the experiment with HOP-92, with IGROV-1 and in the experiment with K562 was > 100 µM (inactive) in each case. Also, the GI50 in the experiment on KM12, in the experiment on M14, in the experiment with MDA-N, in the experiment with Malme-3M, in the experiment with NCI-H460 and in the experiment on OVCAR-3 was > 100 µM (inactive) each time. For the same molecule, the GI50 with OVCAR-5, in the experiment with OVCAR-8, in the experiment with SK-MEL-28, in the experiment with SK-MEL-5, in the experiment with T47D and in the experiment on UACC-62 was > 100 µM (inactive) throughout.

For the molecule `CC(=O)N(CCc1ccccc1)C(C#N)c1ccc(OCCCCCCCCCCOc2ccc(C(C#N)N(CCc3ccccc3)C(C)=O)cc2)cc1` (stereo not drawn), the GI50 with ACHN is 66.4 µM (inactive); in the experiment on HCT-116 it was > 100 µM (inactive); in the experiment on HOP-92, 15 µM (inactive); with IGROV-1, 31.6 µM (inactive); in the experiment on K562, > 100 µM (inactive); in the experiment with KM12, > 100 µM (inactive). The GI50 in the experiment on M14 was > 100 µM (inactive); in the experiment on MDA-N, > 100 µM (inactive); in the experiment on Malme-3M, > 100 µM (inactive); in the experiment with NCI-H460, 94.8 µM (inactive); in the experiment with OVCAR-3 it was > 100 µM (inactive); in the experiment with OVCAR-5 it was > 100 µM (inactive). Further, the GI50 is 23 µM (inactive) in the experiment on OVCAR-8; 21.7 µM (inactive) in the experiment with SF-268; > 100 µM (inactive) in the experiment on SK-MEL-28; > 100 µM (inactive) with SK-MEL-5; 41 µM (inactive) with T47D; > 100 µM (inactive) in the experiment on UACC-257. In addition, in the experiment on UACC-62, the GI50 is 62.1 µM (inactive).

`Nn1c(SCC(=O)O)nc2ccccc2c1=O`: the GI50 in the experiment with ACHN, with HCT-116, in the experiment on HOP-92, in the experiment with IGROV-1, with K562 and in the experiment on KM12 was > 100 µM (inactive) each time. The GI50 with M14, in the experiment on MDA-N, in the experiment on Malme-3M, with NCI-H460, in the experiment on OVCAR-3 and in the experiment with OVCAR-5 was > 100 µM (inactive) each time. For the same molecule, the GI50 in the experiment on OVCAR-8, in the experiment on SF-268, in the experiment on SK-MEL-28, with SK-MEL-5, in the experiment with T47D and with UACC-257 was > 100 µM (inactive) each time. In the experiment on UACC-62, the GI50 is > 100 µM (inactive).

Take `CCC/C(=N\NC(=S)N1CCN(c2ccccn2)CC1)c1ccccn1`: the GI50 in the experiment on ACHN is 0.0207 µM (active); in the experiment on HCT-116, 0.00122 µM (active); in the experiment on HOP-62, 0.141 µM (active); in the experiment with HOP-92 it was 0.233 µM (active); in the experiment on IGROV-1, 0.00234 µM (active); in the experiment on K562 it was 0.00117 µM (active). The GI50 was 0.0146 µM (active) in the experiment with KM12; 0.157 µM (active) with MDA-N; 0.0205 µM (active) with Malme-3M; 0.0362 µM (active) in the experiment on NCI-H460; 0.0325 µM (active) with OVCAR-3; 0.61 µM (active) with OVCAR-5. For the same molecule, the GI50 is 0.00314 µM (active) with OVCAR-8; 0.236 µM (active) in the experiment on SF-268; 0.367 µM (active) in the experiment with SK-MEL-28; 0.0108 µM (active) in the experiment with SK-MEL-5; 0.00248 µM (active) with T47D; 0.00387 µM (active) in the experiment with UACC-257. Besides, the GI50 in the experiment with UACC-62 is 0.0036 µM (active).

On to `Clc1ccc(Cl)c(/N=N/c2cc3c4c(c2)CCCN4CCC3)c1`, for which the GI50 in the experiment on ACHN, with HCT-116, in the experiment on HOP-62, in the experiment on HOP-92, in the experiment on IGROV-1 and in the experiment on K562 was > 10 µM (inactive) in each case. The GI50 with KM12, with M14, in the experiment with MDA-N, in the experiment on Malme-3M, in the experiment on NCI-H460 and with OVCAR-3 was > 10 µM (inactive) each time. Also, the GI50 in the experiment on OVCAR-8, in the experiment on SF-268, with SK-MEL-28, in the experiment with SK-MEL-5, in the experiment with T47D and with UACC-257 was > 10 µM (inactive) throughout. Moreover, the GI50 with UACC-62 was > 10 µM (inactive).

`CCOc1cc(C2CC(c3ccc(NS(=O)(=O)c4cc([N+](=O)[O-])ccc4C)cc3)=NN2C(=O)c2ccccc2)ccc1O` (stereo not drawn): the GI50 with ACHN was 18.5 µM (inactive); in the experiment with HCT-116 it was 15.3 µM (inactive); in the experiment on HOP-62, 17.1 µM (inactive); in the experiment on HOP-92, 14.8 µM (inactive); in the experiment on IGROV-1, 10.6 µM (inactive); in the experiment with K562, 18.2 µM (inactive). Besides, the GI50 is 30.3 µM (inactive) with KM12; 18.7 µM (inactive) in the experiment with M14; 21.8 µM (inactive) in the experiment with MDA-N; 13.8 µM (inactive) with Malme-3M; 12 µM (inactive) in the experiment on OVCAR-3; 36.6 µM (inactive) with OVCAR-5. Moreover, the GI50 in the experiment on OVCAR-8 is 15.2 µM (inactive); in the experiment with SF-268 it was 15.7 µM (inactive); in the experiment on SK-MEL-28, 36.5 µM (inactive); with SK-MEL-5 it was 15.8 µM (inactive); with T47D, 12.1 µM (inactive); in the experiment on UACC-257 it was 18.2 µM (inactive).

On to `CC1CN=C(N(C(=O)Nc2ccc(F)c(Cl)c2)c2ccccc2)S1` (stereo not drawn), for which the GI50 in the experiment on ACHN is 25.5 µM (inactive); with HCT-116 it was 21.5 µM (inactive); with HOP-62 it was 27.6 µM (inactive); with HOP-92, 20.3 µM (inactive); with IGROV-1 it was 27.8 µM (inactive); in the experiment on K562, 27 µM (inactive). The GI50 is 26.5 µM (inactive) in the experiment with KM12; 28.4 µM (inactive) in the experiment on M14; 18.9 µM (inactive) in the experiment on MDA-N; 30.3 µM (inactive) in the experiment with Malme-3M; 25.4 µM (inactive) in the experiment on NCI-H460; 34.5 µM (inactive) in the experiment with OVCAR-3. Moreover, the GI50 in the experiment on OVCAR-5 was 28.2 µM (inactive); in the experiment on OVCAR-8 it was 23.9 µM (inactive); in the experiment on SF-268 it was 27.5 µM (inactive); in the experiment with SK-MEL-28, 15.1 µM (inactive); in the experiment with SK-MEL-5, 16.4 µM (inactive); with T47D it was 16.8 µM (inactive). The GI50 in the experiment on UACC-257 is 24.6 µM (inactive).

Regarding `COc1ccc(CNNC(=O)c2cc[n+]([BH2-]C#N)cc2)cc1OC`, the GI50 in the experiment on ACHN, in the experiment with HCT-116, in the experiment on HOP-92, in the experiment with IGROV-1, in the experiment with K562 and with KM12 was > 100 µM (inactive) each time. Also, the GI50 with M14, with MDA-N, in the experiment on Malme-3M, with NCI-H460, in the experiment on OVCAR-3 and in the experiment with OVCAR-5 was > 100 µM (inactive) throughout. Further, the GI50 in the experiment on OVCAR-8, in the experiment on SF-268, with SK-MEL-28, with SK-MEL-5, in the experiment with T47D and in the experiment with UACC-257 was > 100 µM (inactive) throughout. Moreover, the GI50 in the experiment on UACC-62 is > 100 µM (inactive).

As to `c1ccc([I+]c2ccccc2)cc1`, the GI50 with ACHN is > 100 µM (inactive); in the experiment with HCT-116, > 100 µM (inactive); with HOP-62, > 100 µM (inactive); in the experiment on HOP-92 it was 70 µM (inactive); in the experiment with IGROV-1 it was > 100 µM (inactive); in the experiment on K562, > 100 µM (inactive). Moreover, the GI50 in the experiment with KM12, in the experiment with M14, in the experiment on MDA-N, with Malme-3M, in the experiment with NCI-H460 and in the experiment on OVCAR-3 was > 100 µM (inactive) throughout. Besides, the GI50 in the experiment with OVCAR-5, in the experiment on OVCAR-8, in the experiment on SF-268, in the experiment with SK-MEL-28, in the experiment with SK-MEL-5 and with T47D was > 100 µM (inactive) in each case. Moreover, the GI50 with UACC-257 is > 100 µM (inactive).
